The values below come from US6686382B2, “Sulfonamides and derivatives thereof that modulate the activity of endothelin” (Encysive Pharmaceuticals Inc., priority 1999, dated 2004).

pIC50: −log10 of the molar value.

Series [1] concerns ETA receptors and ETB receptors. Description: Endothelin binding inhibition, ETA (TE 671) and ETB (transfected COS7) receptors: selectivity. Also noted: species or system human. The note with it: antagonism of ETA receptors over ETB receptors. The text has this:
Compounds that are potential endothelin antagonists are identified by testing their ability to compete with ^125I-labeled ET-1 for binding to human ETA receptors or ETB receptors present on isolated cell membranes. The effectiveness of the test compound as an antagonist or agonist of the biological tissue response of endothelin can also be assessed by measuring the effect on endothelin induced contraction of isolated rat thoracic aortic rings. The ability of the compounds to act as antagonists or agonists for ETB receptors can be assess by testing the ability of the compounds are to inhibit endothelin-1 induced prostacyclin release from cultured bovine aortic endothelial cells.
A. Endothelin Binding Inhibition—Binding Test #1: Inhibition of Binding to ETA Receptors
TE 671 cells (ATCC Accession No. HTB 139) express ETA receptors. These cells were grown to confluence in T-175 flasks. Cells from multiple flasks were collected by scraping, pooled and centrifugedfor 10 min at 190×g. The cells were resuspended in phosphate buffered saline (PBS) containing 10 mM EDTA using a Tenbroeck homogenizer. The suspension was centrifuged at 4° C. at 57,800×g for 15 min, the pellet was resuspended in 5 ml of buffer A (5 mM HEPES buffer, pH 7.4 containing aprotinin (100 KIU/ml)) and then frozen and thawed once. 5 ml of Buffer B (5 mM HEPES Buffer, pH 7.4 containing 10 mM MnCl2 and 0.001% deoxyribonuclease Type 1) was added, the suspension mixed by inversion and then incubated at 37° C. for 30 minutes. The mixture was centrifuged at 57,800×g as described above, the pellet washed twice with buffer A and then resuspended in buffer C (30 mM HEPES buffer, pH 7.4 containing aprotinin (100 KIU/ml) to give a final protein concentration of 2 mg/ml and stored at −70° C. until use.
The membrane suspension was diluted with binding buffer (30 mM HEPES buffer, pH 7.4 containing 150 mM NaCl, 5 mM MgCl2, 0.5% Bacitracin) to a concentration of 8 μg/50 μl. ^125I-endothelin-1 (3,000 cpm, […]) was added to 50 μL of either: (A) endothelin-1 (for non specific binding) to give a final concentration 80 nM); (B) binding buffer (for total binding); or (C) a test compound (final concentration 1 nM to 100 μM). The membrane suspension (50 μL), containing up to 8 μg of membrane protein, was added to each of (A), (B), or (C). Mixtures were shaken, and incubated at 4° C. for 16-18 hours, and then centrifuged at 4° C. for 25 min at 2,500×g. Alternatively, the incubation was conducted at 24° C. […] This, must be kept in mind when comparing IC50 concentrations among compounds provided herein.
The supernatant, containing unbound radioactivity, was decanted and the pellet counted on a Genesys multiwell gamma counter. The degree of inhibition of binding (D) was calculated according to the following equation: [formula]
B. Endothelin Binding Inhibition—Binding Test #2: Inhibition of Binding to ETB Receptors
COS7 cells were transfected with DNA encoding the ETB receptor, The resulting cells, which express the human ETB receptor, were grown to confluence in T-150 flasks. Membrane was prepared as described above. The binding assay was performed as described above using the membrane preparation diluted with binding buffer to a concentration of 1 μg/50 μl.
Briefly, the COS7 cells, described above, that had been transfected with DNA encoding the ETB receptor and express the human ETB receptor on their surfaces were grown to confluence in T-175 flasks. […]

Another series addresses T1, CYP2C19 (Homo sapiens, UniProt P33261).
T1 construct: purchased Gentest Corporation P259
Nature of the series: Cytochrome P450 enzyme assay, CYP2C19 (Gentest Supersomes, fluorometric). Conditions: human recombinant enzyme, mean IC50; read-out: CP450 2C19 IC50. It is filed as in vitro ADME. The protocol: In vitro assays to determine the concentration of the compounds provided herein required for 50% inhibition of substrate metabolism (IC50) by different human cytochrome P450 enzymes (2C9, 2C19, 3A4) were conducted using human recombinant cytochrome P450 enzyme assays, developed by Gentest Corporation. These assays contain Gentest Supersomes™ (specific human cytochrome P450 enzyme, co-expressed with P450 reductase and cytochrome b5), a NADPH regenerating system, substrate and a concentration range of the compounds provided herein. The fluorescent product was the measured end point for these assays. IC50s were calculated using a four-parameter logistic equation with the bottom fixed at 0% inhibition and the top fixed at 100% inhibition. (Values are the mean IC50±SD when n is greater than 1.)
Assays were conducted in 96-well microtiter plates using fluorometric assays developed by Gentest Corporation. The 12 wells in each row were used for one inhibition curve. Wells 1 to 8 contained serial 1:3 dilutions of the test compound. Wells 9 to 12 contained no inhibitor and wells 11 and 12 were blanks for background fluorescence (stop solution was added before the enzyme). All concentration curves were performed in duplicate. Incubations were initiated by the addition of enzyme and substrate to the pre-warmed reaction mixture. After a specific incubation period, the reaction was stopped by the addition of stop solution. Metabolite production per well was determined by measuring fluorescence using a fluorescent plate reader. Detailed experimental procedures for each enzyme are listed below. See, generally, Methodology of a high throughput method for measuring cytochrome P450 inhibition (Gentest Corporation, Technical Bulletin); Crespi, C. L.; Miller, V. P.; and Penman, B. W. (1997) Anal. Biochem. 248:188-190; and Geungerich, F. P. (1997) Adv. Pharm. 43:7-35.
A 0.2 ml/well reaction mixture containing 1 pmol CYP2C19 (P259), 1.3 mM NADP^+, 3.3 mM glucose-6-phosphate, 3.3 mM magnesium chloride, 0.4 U/ml glucose-6-phosphate dehydrogenase and 25 μM 3-cyano-7-ethoxycoumarin in 50 mM potassium phosphate (pH 7.4), was incubated at 37° C. for 45 minutes. Tranylcypromine, a standard inhibitor of CYP2C19, was serially diluted from the highest concentration of 500 μM and acted as a positive control. The test compound was serially diluted from the highest concentration of 100 μM. After incubation, the reaction was stopped by the addition of 75 μl stop solution (80% acetonitrile/20% 0.5 M Tris base) and fluorescence/well was read within 1 hour using a Spectra Fluor (Tecan) fluorescent plate reader. […]
The “% inhibition” was calculated as follows: [formula]
Concentration versus % inhibition curves were constructed in Prism (GraphPad, Inc.). The data was analyzed using “Top & Bottom Fixed” routine. […]

T1 sequence (P33261 whole entry): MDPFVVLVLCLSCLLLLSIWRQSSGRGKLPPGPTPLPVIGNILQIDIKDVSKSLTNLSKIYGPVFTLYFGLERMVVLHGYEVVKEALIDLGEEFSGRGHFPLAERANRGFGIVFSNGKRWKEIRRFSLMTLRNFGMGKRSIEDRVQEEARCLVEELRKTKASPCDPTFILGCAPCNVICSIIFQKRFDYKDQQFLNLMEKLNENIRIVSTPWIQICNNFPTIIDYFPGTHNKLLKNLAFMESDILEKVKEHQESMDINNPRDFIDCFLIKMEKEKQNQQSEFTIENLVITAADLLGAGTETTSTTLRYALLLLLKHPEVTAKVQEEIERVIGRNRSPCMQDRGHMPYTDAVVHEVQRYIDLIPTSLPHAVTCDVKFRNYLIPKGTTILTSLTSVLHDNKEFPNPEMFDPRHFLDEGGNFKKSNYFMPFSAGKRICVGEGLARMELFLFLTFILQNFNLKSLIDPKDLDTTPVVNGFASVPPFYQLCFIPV

Take `CC(=O)c1cc(C)cc(C)c1NC(=O)c1sccc1S(=O)(=O)Nc1onc(C)c1C` [Compound 7, N-(2-acetyl-4,6-dimethylphenyl)-3-{[(3,4 dimethyl-5-isoxazolyl)amino]sulfonyl}-2-thiophenecarboxamide]: in series [1], the “Selectivity (IC50 for ETB/IC50 for ETA)” value was 441,000. Also, the negative-log IC50 (pIC50) (commonly the negative decadic logarithm of the IC50, by convention in mol/L) at CYP2C19 was 3.90.

For `Cc1cc(C)c(NC(=O)c2sccc2S(=O)(=O)Nc2onc(C)c2Cl)c(Cl)c1` [Compound 34, N-(2-chloro-4,6-dimethylphenyl)-3-{[(4-chloro-3-methyl-5-isoxazolyl)amino]sulfonyl}2-thiophenecarboxamide], the “Selectivity (IC50 for ETB/IC50 for ETA)” value in series [1] is listed as 166,000. Besides, the pIC50 on CYP2C19 is 5.34.

Take `Cc1cc(C)c(NC(=O)c2sccc2S(=O)(=O)Nc2onc(C)c2Cl)c(S(C)(=O)=O)c1` [Compound 42, 3-{[(4-chloro-3-methyl-5-isoxazolyl)amino]sulfonyl)-N-[2,4-dimethyl-6-(methylsulfonyl)phenyl]-2-thiophenecarboxamide]: the “Selectivity (IC50 for ETB/IC50 for ETA)” value in series [1] is given as 456,000. Further, at CYP2C19, the pIC50 was 5.21.

As to `Cc1cc2c(cc1CC(=O)c1sccc1S(=O)(=O)Nc1onc(C)c1Cl)OCO2` [N-(4-chloro-3-methyl-5-isoxazolyl)-2-{[3,4-(methylenedioxy)-6-methylphenyl)acetyl]-thiophene-3-sulfonamide, reference compound], in series [1], the “Selectivity (IC50 for ETB/IC50 for ETA)” value was 20,950. Further, on CYP2C19, the pIC50 was 6.70.
